One data set has as its system red blood cells. Nature of the data set: Hemolysis assay. It counts as cell-based, Sheep. The settings on record: concentration required to lyse 50% of red blood cells; 37 °C, 1 h. The procedure:
(§1) All target derivatives were assessed for their in vitro antibacterial activities using a broth microdilution assay to test their minimum inhibitory concentrations (MICs) against six Gram-positive strains (S. aureus ATCC31007, S. aureus ATCC25923, S. aureus ATCC43300, E. faecalis ATCC29212, B. subtilis ATCC9372, and S. epidermidis ATCC12228) and four Gram-negative strains (A. baumannii ATCC19606, K. pneumonia ATCC10031, E. coli ATCC25922, and P. aeruginosa ATCC27853). These compounds were also evaluated for their hemolytic activities and membrane selectivity by determining their HC50 (the concentration required to lyse 50% of red blood cells) and SI (HC50/MICs) values, respectively, and vancomycin was used as the positive drug.
To further detect the hemolytic toxicity and therapeutic potential of these derivatives, we proceeded to examine the hemolytic activities and membrane selectivity of these derivatives. The HC50 value was defined as the concentration needed for a compound to lyse 50% of red blood cells, and it is often used to evaluate the hemolytic toxicity to eukaryotic cells. […] The selectivity index (SI) was calculated by HC50/MICs of S. aureus ATCC43300 and was used to assess the potency and safety of the compounds. […] Thus, compound 9h was selected as a representative molecule for the in-depth in vitro and in vivo studies.
Sheep blood was used to isolate red blood cells (RBCs), which were then resuspended in 1× PBS (5%). The compounds were dissolved in PBS to give an initial concentration of 5.12 mg/mL, compound solution (100 μL) was added to the first well of a 96-well plate, two-fold serial dilutions of compounds were prepared in 96-well plates, and then 150 μL of 5% RBC suspension was added to each well. This was followed by incubation at 37 °C for 1 h. After incubation, the plate was centrifuged (3500 rpm, 5 min), and 100 μL of supernatant solution from each well was carefully pipetted into a new plate. The absorbance values were measured at 540 nm. Erythrocyte hemolysis rate = (Absorbancecompound – Absorbance negative control)/(Absorbance1% Triton X-100 − Absorbance negative control) × 100%. All biological experiments were repeated three times.

For data set [1], the system named is Enterococcus faecium ATCC51559, vancomycin-resistant strain. Put plainly: MIC, broth microdilution. It counts as cell-based. The settings on record: Enterococcus faecium ATCC51559, vancomycin-resistant; read-out: MIC E. f. 51559. The method in brief: (§2)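 Broth microdilution per CLSI: 2-fold serial compound dilutions in TSB broth, mixed with an equal volume of bacterial suspension at 10^6 CFU/mL. Incubated 37 °C for 24 h; experiments repeated three times.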

Data set [2] has as its system Enterococcus faecalis ATCC51299, vancomycin-resistant strain. Nature of the data set: MIC, broth microdilution. The settings on record: Enterococcus faecalis ATCC51299, vancomycin-resistant; read-out: MIC E. f. 51299. It counts as cell-based. The method in brief:
as §2

Data set [3] can be described thus: In vitro cytotoxicity evaluation. It counts as cell-based. Particulars: human, LO2 cells. The procedure: A key component in the development of antimicrobial agents for clinical application is the assessment of their potential toxicity to mammalian cells. To assess the cytotoxic impact, compound 9h was chosen to undergo in vitro testing for its cytotoxic effects on LO2 cells.

Data set [4] concerns Gram-negative bacteria tested. Put plainly: MIC, summary over the Gram-negative bacteria tested. Particulars: read-out: MICs against the Gram-negative bacteria tested. It counts as cell-based. How it is done:
as §1
MICs of the derivatives were determined by the micro broth dilution method according to the American Clinical and Laboratory Standards Institute (CLSI) standards. Briefly, 2-fold serial dilutions of target compounds were prepared in 96-well plates containing TSB broth. An equal volume of bacterial suspension (10^6 CFU/mL) was then pipetted into each well, and the mixture was incubated at 37 °C for 24 h. […] All biological experiments were repeated three times.

Another data set has as its system S. aureus ATCC43300. Put plainly: DNA leakage study. It counts as cell-based. The settings on record: 16 μg/mL. The procedure: The destruction of bacterial cell membranes usually causes the leakage of macromolecules, including DNA and proteins. To investigate the effect of the compound 9h on the leakage of cytoplasmic contents, we performed DNA and protein leakage assays against S. aureus ATCC43300. The degree of damage to the bacterial cell membrane could be reflected by the concentrations of DNA and protein. The non-membrane-targeted antibiotic ciprofloxacin, membrane-targeted peptide melittin, and PBS were used as controls. […] A similar result were also observed in the leakage of protein with S. aureus (Figure 8C).
Mid-log S. aureus ATCC43300 was collected and resuspended in PBS (1.0 × 10^8 CFU/mL). […] The concentration of the protein was determined according to the method of the BCA assay kit (Thermo Fisher Scientific, Waltham, MA, USA), and the concentration of DNA in the supernatant was tested by a micro-spectrophotometer. All biological experiments were repeated three times.

This note sets out measurements from article PMC11350758, “Development of Xanthoangelol-Derived Compounds with Membrane-Disrupting Effects against Gram-Positive Bacteria” (Antibiotics, 2024).

Each structure is given as a SMILES string. ≈ marks a conversion by molar mass, not a printed value.

As usually defined, the HC50 is the concentration that lyses half of the red blood cells. Low readings indicate stronger haemolysis, high ones weaker haemolysis. Broadly, the IC50 is the concentration that inhibits the measured activity by half. The low end stands for higher potency, the high end for lower potency. In general, viability refers to the share of living cells, or the viability signal relative to a control.

`CC(=O)c1c(OCCCNCCCN2CCN(C)CC2)c2c(c3c1OC(C)(CCC=C(C)C)C=C3)OC(C)(CCC=C(C)C)C=C2` (stereo not shown) [Compound 9h, 1-(2,8-Dimethyl-2,8-bis(4-methylpent-3-en-1-yl)-5-(3-((3-(4-methylpiperazin-1-yl)propyl)amino)propoxy)-2H,8H-pyrano [2,3-f]chromen-6-yl)ethan-1-one] showed an HC50 with red blood cells of 98.0 µg/mL. Further, the MIC in data set [1] was 4 µg/mL (≈ 6.31 µM); in data set [2], 8 µg/mL (≈ 12.6 µM); in data set [4] it was 4 to 16 µg/mL (≈ 6.31 to 25.2 µM). The half-maximal inhibitory concentration (IC50) in data set [3] amounted to 55 µg/mL (≈ 86.8 µM). Besides, the viability at 2 μg/mL in data set [3] (2 μg/mL, read-out: Cell Viability (%)) worked out at 88.8%. Also, the viability at 4 μg/mL in data set [3] (4 μg/mL, read-out: Cell Viability (%)) was determined as 88.6%. Also, the viability at 8 μg/mL in data set [3] (8 μg/mL, read-out: Cell Viability (%)) worked out at 82.6%. For the same molecule, the viability at 16 μg/mL in data set [3] (16 μg/mL, read-out: Cell Viability (%)) is 78.4%. Further, in data set [3] (32 μg/mL, read-out: Cell Viability (%)), the viability at 32 μg/mL is 71.4%. Besides, the viability at 64 μg/mL in data set [3] (64 μg/mL, read-out: Cell Viability (%)) came to 58.1%. The viability at 128 μg/mL in data set [3] (128 μg/mL, read-out: Cell Viability (%)) turned out to be 19.7%. Moreover, the “concentration of DNA excreted vs blank control” value in the data set on S. aureus ATCC43300 is on record as “approximately 5.5 fold”.
